Laboratory results as given in patent publication US11311565B2, “Synergistic nutritional compositions for promoting axonal regeneration” (CELAGENEX RESEARCH (INDIA) PVT. LTD., priority 2020, dated 2022).

What was measured:
Type in all cases: in vivo, Swiss albino mice
GAP-43 = assay: SCI animal study: fold increase in plasticity protein GAP-43; settings: animals subjected to SCI, 6 animals per group
Excerpt: (§1) The purpose of this study is to evaluate the effect of the test substance in Swiss albino rats.
(§2) No. of animals: 30 Animals (5 groups of 6 animals each)
(§3) Group 1 is placebo, Group 2 was given a standard treatment of antithrombotic, antiepileptic, anti-inflammatory and steroid protocol (methylprednisolone) and Group 3, Group 4 and Group 5 served as test substance. Animals were subjected to SCI and outcome measures were monitored.

BDNF = assay: SCI animal study: fold increase in plasticity protein BDNF; settings: animals subjected to SCI, 6 animals per group
Excerpt: as §1, §2, §3

NGF = assay: SCI animal study: fold increase in plasticity protein NGF; settings: animals subjected to SCI, 6 animals per group
Excerpt: as §1, §2, §3

NTF3 = assay: SCI animal study: fold increase in plasticity protein NTF3; settings: animals subjected to SCI, 6 animals per group
Excerpt: as §1, §2, §3

animals subjected to SCI = assay: SCI animal study: improvement of limb movements; settings: baseline is 1
Excerpt: as §1, §2, §3

[1] = system: axons crossing denervated side; assay: SCI animal study: subjects with >1000 axons crossing denervated side; settings: animals subjected to SCI; % subjects
Excerpt: as §1, §2, §3
4. Subjects with >1000 axons crossing denervated side—as % subjects

For `N=C(N)NCCCCN.O=S(=O)(O)O` [Test II, Agmatine Sulphate], the “No. of fold increase in plasticity proteins from baseline: GAP-43” value (GAP-43) was 3.44 fold, the “No. of fold increase in plasticity proteins from baseline: BDNF” value (BDNF) was 2.44 fold and the “No. of fold increase in plasticity proteins from baseline: NGF” value (NGF) was 1.69 fold. For the same compound, the “No. of fold increase in plasticity proteins from baseline: NTF3” value (NTF3) was 1.17 fold, the “Percentage improvement of limb movements to baseline (Baseline as 1)” value (animals subjected to SCI) was 0.34 and the “percentage of subjects with >1000 axons crossing denervated side” value [1] was 18%.
